Patent US8580995B2, “Lysine-based prodrugs of aspartyl protease inhibitors and processes for their preparation” (priority 2005, dated 2013)

Assay: Bioavailability: plasma concentration after single oral administration to rats
Assay type: in vivo, male Sprague-Dawley rats
Conditions: for AUC: 50 mg/Kg po, 3 rats; for Detection of the administered phosphate compound itself in the blood samples / Delivery of parent drug (PL-100, PL-337) by aqueous dosing compared to non-aqueous formulations of PL-100 and PL-337: 50 mg/kg po; for Detection of the administered phosphate compound itself in the blood samples: delivered as aqueous solutions, HPLC-MS of plasma; for Delivery of parent drug (PL-100, PL-337) by aqueous dosing compared to non-aqueous formulations of PL-100 and PL-337: rats
Method: To assess the extent of in vivo cleavage of the phosphate group from the putative compounds, PL-100, PL-462 (based on PL-100), PL-337 and PL-515 (based on PL-337) compounds were administered per os (po) (50 mg/kg) to male Sprague-Dawley rats and their plasma concentration measured at different time intervals post-administration. All test articles (PL-100, PL-462, PL-337 and PL-515) were prepared in different vehicle at the final concentration of 25 mg/mL. The vehicle composition is as follows: (1) 20% ethanol; 50% propylene glycol; 0.05% w/v Tween 20 and water (Mix); (2) PBS buffer (PBS). Test articles were administered to male Sprague-Dawley rats at a single oral dose of 50 mg/kg. Each article was tested in three rats. Blood samples (0.2-0.3 mL) were collected at the post-dose time of 10, 20, 40, 60, 120, 180 and 360 minutes. The harvested blood was centrifuged to isolate plasma. The resulting plasma was separated and stored at −70° C. Plasma samples together with standards and quality control samples were treated to precipitate proteins, then analyzed by HPLC-MS, for the presence of PL-462, PL-100, PL-515 and PL-337.

[1] = vehicle PBS, parent drug (PL-100 or PL-337) detected in plasma after dosing the phosphate compound
[2] = vehicle Mix (20% ethanol; 50% propylene glycol; 0.05% w/v Tween 20 and water)

AUC [2] | SMILES | AUC [1] | Detection of the administered phosphate compound itself in the blood samples | Delivery of parent drug (PL-100, PL-337) by aqueous dosing compared to non-aqueous formulations of PL-100 and PL-337
– | COC(=O)N[C@H](C(=O)NCCCC[C@@H](COP(=O)([O-])[O-])N(CC(C)C)S(=O)(=O)c1ccc(N)cc1)C(c1ccccc1)c1ccccc1.[Na+].[Na+] [PL-462, (1S,5S)-(1-{5-[(4-amino-benzenesulfonyl)-isobutyl-amino]-6-phosphonooxy-hexylcarbamoyl}-2,2-diphenyl-ethyl)-carbamic acid methyl ester sodium salt] | 0.816 ± 0.295 μg/hr*ml | None of the PL-462 and PL-515 compounds, delivered as aqueous solutions, are detected in the blood samples | equivalent to slightly superior delivery
1.180 ± 0.196 μg/hr*ml | COC(=O)N[C@H](C(=O)NCCCC[C@@H](CO)N(CC(C)C)S(=O)(=O)c1ccc(N)c(F)c1)C(c1ccccc1)c1ccccc1 [PL-337, (1-{5-[(4-amino-3-fluoro-benzenesulfonyl)-isobutyl-amino]-6-hydroxy-hexylcarbamoyl}-2,2-diphenyl-ethyl)-carbamic acid methyl ester] | – | – | –
0.675 ± 0.171 μg/hr*ml | COC(=O)N[C@H](C(=O)NCCCC[C@@H](CO)N(CC(C)C)S(=O)(=O)c1ccc(N)cc1)C(c1ccccc1)c1ccccc1 [PL-100, (1S,5S)-(1-{5-[(4-amino-benzenesulfonyl)-isobutyl-amino]-6-hydroxy-hexylcarbamoyl}-2,2-diphenyl-ethyl)-carbamic acid methyl ester] | – | – | –
– | COC(=O)N[C@H](C(=O)NCCCC[C@@H](COP(=O)(O)O)N(CC(C)C)S(=O)(=O)c1ccc(N)c(F)c1)C(c1ccccc1)c1ccccc1 [PL-515, (1S,5S)-(1-{5-[(4-amino-3-fluoro-benzenesulfonyl)-isobutyl-amino]-6-phosphonooxy-hexylcarbamoyl}-2,2-diphenyl-ethyl)-carbamic acid methyl ester] | 1.075 ± 0.625 μg/hr*ml | None of the PL-462 and PL-515 compounds, delivered as aqueous solutions, are detected in the blood samples | equivalent to slightly superior delivery
